# According to patent US8309554B2 (priority 2008, dated 2012):
# Where a name gives a salt, the structure may show the parent alone. Read-outs that look alike come from different tables or passages of the source.
# Experiments:
# H460 = experiment: cells; format: cell-based; conditions: for IC50: Homo sapiens, NCI-H460, 2 h
# HT29 = experiment: cells; format: cell-based; conditions: for IC50: Homo sapiens, HT-29, 2 h
Compound,H460 HCR: Air/N2 (H460),IC50 (H460; read-out: 2 hr Air H460 IC50),IC50 (H460; read-out: 2 hr N2 H460 IC50),HT29 HCR: Air/N2 (HT29),IC50 (HT29; read-out: 2 hr Air HT29 IC50),IC50 (HT29; read-out: 2 hr N2 HT29 IC50)
O=C(CO)Nc1ccc(CC(c2ccsc2[N+](=O)[O-])S(=O)(=O)Oc2ccc(N(CCCl)CCCl)cc2)cc1 (centres unmarked) [TH-1400],54.3,76 µM,1.4 µM,2.1,170 µM,80 µM
"O=[N+]([O-])c1sccc1C(Cc1ccc2nnn(CCO)c2c1)S(=O)(=O)Oc1ccc(N(CCCl)CCCl)cc1 (centres unmarked) [TH-1457, 3-(4-(N,N-bis-(2-Chloroethyl)amino)phenoxysulfonyl-(1-(2-hydroxyethyl)benzotriazol-6-yl-methyl))methyl-2-nitrothiophene]",240,120 µM,0.5 µM,45,180 µM,4 µM
O=[N+]([O-])c1sccc1C(CCS(=O)(=O)c1ccc(C(F)(F)F)cn1)S(=O)(=O)Oc1ccc(N(CCCl)CCCl)cc1 (centres unmarked) [TH-1369],131,236 µM,1.8 µM,–,> 1000 µM,> 1000 µM
O=[N+]([O-])c1sccc1C(Cc1ccc(OCCO)cc1)S(=O)(=O)Oc1ccc(N(CCCl)CCCl)cc1 (centres unmarked) [TH-1325],929,92.9 µM,0.1 µM,–,> 300 µM,> 300 µM
"O=[N+]([O-])c1sccc1C(Cn1nnc2ccccc21)S(=O)(=O)Oc1ccc(N(CCCl)CCCl)cc1 (centres unmarked) [TH-1343, 3-(4-(N,N-bis-(2-Chloroethyl)amino)phenoxysulfonyl-(benzotriazol-1-yl-methyl))methyl-2-nitrothiophene]",133,93 µM,0.7 µM,>4.2,> 1000 µM,24 µM
CC(=O)Nc1ncccc1CC(c1ccsc1[N+](=O)[O-])S(=O)(=O)Oc1ccc(N(CCCl)CCCl)cc1 (centres unmarked) [TH-1375],93,28 µM,0.3 µM,16,280 µM,17 µM
CC(=O)Nc1cc(CC(c2ccsc2[N+](=O)[O-])S(=O)(=O)Oc2ccc(N(CCCl)CCCl)cc2)ccn1 (centres unmarked) [TH-1376],236,212 µM,0.9 µM,10,540 µM,52 µM
"Nc1ccc(CC(c2ccsc2[N+](=O)[O-])S(=O)(=O)Oc2ccc(N(CCCl)CCCl)cc2)cn1 (centres unmarked) [TH-1255, 3-(4-(N,N-bis-(2-Chloroethyl)amino)phenoxysulfonyl-(2-aminopyridin-5-yl-methyl))methyl-2-nitrothiophene trifluoroacetate]",30.7,61.4 µM,2 µM,16,204 µM,13 µM
COCC(=O)Nc1ccc(CC(c2ccsc2[N+](=O)[O-])S(=O)(=O)Oc2ccc(N(CCCl)CCCl)cc2)cc1 (centres unmarked) [TH-1479],325,260 µM,0.8 µM,2.7,> 300 µM,110 µM
"O=[N+]([O-])c1sccc1C(Cc1ccc2c(c1)nnn2CCO)S(=O)(=O)Oc1ccc(N(CCCl)CCCl)cc1 (centres unmarked) [TH-1451, 3-(4-(N,N-bis-(2-Chloroethyl)amino)phenoxysulfonyl-(1-(2-hydroxyethyl)benzotriazol-5-yl-methyl))methyl-2-nitrothiophene]",110,110 µM,1 µM,42,250 µM,6 µM
O=[N+]([O-])c1sccc1C(CNS(=O)(=O)c1ccc(F)cc1)S(=O)(=O)Oc1ccc(N(CCCl)CCCl)cc1 (centres unmarked) [TH-1311],143,57.3 µM,0.4 µM,–,> 300 µM,> 300 µM
"CN1CCN(S(=O)(=O)CCC(c2ccsc2[N+](=O)[O-])S(=O)(=O)Oc2ccc(N(CCCl)CCCl)cc2)CC1 (centres unmarked) [TH-1326, 3-(4-(N,N-bis-(2-Chloroethyl)amino)phenoxysulfonyl-(2-((N-methylpiperazin-4-yl)sulfonyl)ethyl))methyl-2-nitrothiophene]",42,16.6 µM,0.4 µM,48,126 µM,2.6 µM
"O=[N+]([O-])c1sccc1C(CNS(=O)(=O)c1ccccc1)S(=O)(=O)Oc1ccc(N(CCCl)CCCl)cc1 (centres unmarked) [TH-1218, 3-(4-(N,N-bis-(2-Chloroethyl)amino)phenoxysulfonyl-(phenylsulfonylaminomethyl))methyl-2-nitrothiophene]",106,74 µM,0.7 µM,–,> 300 µM,> 300 µM
"C[C@H](O)C(=O)Nc1ccc(CC(c2ccsc2[N+](=O)[O-])S(=O)(=O)Oc2ccc(N(CCCl)CCCl)cc2)cn1 (some centres unmarked) [TH-1465, 3-(4-(N,N-bis-(2-Chloroethyl)amino)phenoxysulfonyl-(2-(lactic acylamino)pyridine-5-yl-methyl))methyl-2-nitrothiophene]",50,40 µM,0.8 µM,30,210 µM,7 µM
O=[N+]([O-])c1sccc1C(Cc1ccc(O[C@H]2CCCC[C@@H]2O)nc1)S(=O)(=O)Oc1ccc(N(CCCl)CCCl)cc1 (some centres unmarked) [TH-1487],64,51 µM,0.8 µM,1,240 µM,280 µM
O=[N+]([O-])c1sccc1C(Cc1cnc(O)c(Cl)c1)S(=O)(=O)Oc1ccc(N(CCCl)CCCl)cc1 (centres unmarked) [TH-1393],89,151 µM,1.7 µM,–,710 µM,110 µM
O=C(CO)Nc1cccc(OS(=O)(=O)CCC(c2ccsc2[N+](=O)[O-])S(=O)(=O)Oc2ccc(N(CCCl)CCCl)cc2)c1 (centres unmarked) [TH-1414],54,135 µM,2.5 µM,7,740 µM,100 µM
CC(=O)Nc1ccncc1CC(c1ccsc1[N+](=O)[O-])S(=O)(=O)Oc1ccc(N(CCCl)CCCl)cc1 (centres unmarked) [TH-1364],36,64 µM,1.8 µM,27,350 µM,13 µM
O=[N+]([O-])c1sccc1C(Cc1nccs1)S(=O)(=O)Oc1ccc(N(CCCl)CCCl)cc1 (centres unmarked) [TH-1419],45,36 µM,0.8 µM,–,> 300 µM,> 300 µM
Nc1cccc(OS(=O)(=O)CCC(c2ccsc2[N+](=O)[O-])S(=O)(=O)Oc2ccc(N(CCCl)CCCl)cc2)c1 (centres unmarked) [TH-1402],93.3,140 µM,1.5 µM,–,> 1000 µM,> 1000 µM
"COCC(=O)N(C)c1ccc(CC(c2ccsc2[N+](=O)[O-])S(=O)(=O)Oc2ccc(N(CCCl)CCCl)cc2)cn1 (centres unmarked) [TH-1478, 3-(4-(N,N-bis-(2-Chloroethyl)amino)phenoxysulfonyl-(2-(N-methoxyacetyl-N-methylamino)pyridin-5-yl-methyl))methyl-2-nitrothiophene]",300,120 µM,0.4 µM,11,220 µM,20 µM
CCCN(CCCl)c1ccc(OS(=O)(=O)C(Cc2ncco2)c2ccsc2[N+](=O)[O-])cc1 (centres unmarked) [TH-1422],88,35 µM,0.4 µM,>3.3,> 300 µM,90 µM
CC(C)Nc1ccc(CC(c2ccsc2[N+](=O)[O-])S(=O)(=O)Oc2ccc(N(CCCl)CCCl)cc2)cn1 (centres unmarked) [TH-1328],187,261 µM,1.4 µM,3.3,151 µM,46 µM
CC(=O)Nc1ccc(CC(c2ccsc2[N+](=O)[O-])S(=O)(=O)Oc2ccc(N(CCCl)CCCl)cc2)cc1 (centres unmarked) [TH-1346],200,220 µM,1.1 µM,3.2,145 µM,46 µM
O=[N+]([O-])c1sccc1C(Cc1ccccn1)S(=O)(=O)Oc1ccc(N(CCCl)CCCl)cc1 (centres unmarked) [TH-1357],41,127 µM,3.1 µM,>2,> 1000 µM,500 µM
O=[N+]([O-])c1sccc1C(CCS(=O)(=O)CCO)S(=O)(=O)Oc1ccc(N(CCCl)CCCl)cc1 (centres unmarked) [TH-1388],35,49 µM,1.4 µM,30,420 µM,14 µM
"O=[N+]([O-])c1sccc1C(Cc1cn2ccccc2n1)S(=O)(=O)Oc1ccc(N(CCCl)CCCl)cc1 (centres unmarked) [TH-1456, 3-(4-(N,N-bis-(2-Chloroethyl)amino)phenoxysulfonyl-(imidazopyridin-2-yl-methyl))methyl-2-nitrothiophene]",100,30 µM,0.3 µM,>60,> 300 µM,5 µM
CN(C)c1ccc(CC(c2ccsc2[N+](=O)[O-])S(=O)(=O)Oc2ccc(N(CCCl)CCCl)cc2)cn1 (centres unmarked) [TH-1316],179,179 µM,1 µM,–,> 300 µM,> 300 µM
O=C1c2ccccc2C(=O)N1CC(c1ccsc1[N+](=O)[O-])S(=O)(=O)Oc1ccc(N(CCCl)CCCl)cc1 (centres unmarked) [TH-1327],178,107 µM,0.6 µM,–,> 1000 µM,> 1000 µM
CS(=O)(=O)N(c1ccc(CC(c2ccsc2[N+](=O)[O-])S(=O)(=O)Oc2ccc(N(CCCl)CCCl)cc2)cn1)S(C)(=O)=O (centres unmarked) [TH-1257],424.0,212 µM,0.5 µM,–,> 300 µM,> 300 µM
